Experiments:
Format in all cases: functional
[1] = Antiproliferative activity against BAEC assessed as inhibition of cell proliferation after 3 days by Coulter counter based cell counting method; details: Bos taurus, 72 h
HeLa [2] = test: Induction of cell cycle arrest in human HeLa cells assessed as accumulation at subG1 phase at 100 uM after 24 hrs by propidium iodide staining based flow cytometry (reference value: 1%)
HeLa [3] = test: Induction of cell cycle arrest in human HeLa cells assessed as accumulation at S phase at 20 uM after 24 hrs by propidium iodide staining based flow cytometry (reference value: 24%)
HeLa [4] = test: Induction of cell cycle arrest in human HeLa cells assessed as accumulation at G2/M phase at 100 uM after 24 hrs by propidium iodide staining based flow cytometry (reference value: 31%)
HeLa [5] = test: Induction of cell cycle arrest in human HeLa cells assessed as accumulation at G2/M phase at 20 uM after 24 hrs by propidium iodide staining based flow cytometry (reference value: 31%)
HeLa [6] = test: Antiproliferative activity against human HeLa cells assessed as inhibition of cell proliferation after 4 days by Coulter counter based cell counting method; details: 96 h
HeLa [7] = test: Induction of cell cycle arrest in human HeLa cells assessed as accumulation at S phase at 100 uM after 24 hrs by propidium iodide staining based flow cytometry (reference value: 24%)
L1210 = test: Antiproliferative activity against mouse L1210 assessed as inhibition of cell proliferation after 48 hrs by Coulter counter based cell counting method; details: L1210, 48 h
HeLa [8] = test: Induction of cell cycle arrest in human HeLa cells assessed as accumulation at subG1 phase at 20 uM after 24 hrs by propidium iodide staining based flow cytometry (reference value: 1%)
HeLa [9] = test: Induction of cell cycle arrest in human HeLa cells assessed as accumulation at G1 phase at 100 uM after 24 hrs by propidium iodide staining based flow cytometry (reference value: 45%)
CCRF-CEM = test: Antiproliferative activity against human CEM cells assessed as inhibition of cell proliferation after 96 hrs by Coulter counter based cell counting method
[10] = Antiproliferative activity against human HMEC1 cells assessed as inhibition of cell proliferation after 4 days by Coulter counter based cell counting method; details: HMEC-1, 96 h
HeLa [11] = test: Induction of cell cycle arrest in human HeLa cells assessed as accumulation at G1 phase at 20 uM after 24 hrs by propidium iodide staining based flow cytometry (reference value: 45%)
[12] = Antiproliferative activity against mouse MBEC assessed as inhibition of cell proliferation after 3 days by Coulter counter based cell counting method; details: 72 h
HeLa [13] = test: Induction of cell cycle arrest in human HeLa cells assessed as accumulation at subG1 phase at 4 uM after 24 hrs by propidium iodide staining based flow cytometry (reference value: 1%)
HeLa [14] = test: Induction of cell cycle arrest in human HeLa cells assessed as accumulation at S phase at 4 uM after 24 hrs by propidium iodide staining based flow cytometry (reference value: 24%)
HeLa [15] = test: Induction of cell cycle arrest in human HeLa cells assessed as accumulation at G1 phase at 4 uM after 24 hrs by propidium iodide staining based flow cytometry (reference value: 45%)
HeLa [16] = test: Induction of cell cycle arrest in human HeLa cells assessed as accumulation at G2/M phase at 4 uM after 24 hrs by propidium iodide staining based flow cytometry (reference value: 31%)
HeLa [17] = test: Induction of cell cycle arrest in human HeLa cells assessed as accumulation at G1 phase at 0.1 uM after 24 hrs by propidium iodide staining based flow cytometry (reference value: 45%)
HeLa [18] = test: Induction of cell cycle arrest in human HeLa cells assessed as accumulation at G2/M phase at 0.1 uM after 24 hrs by propidium iodide staining based flow cytometry (reference value: 31%)
HeLa [19] = test: Induction of cell cycle arrest in human HeLa cells assessed as accumulation at subG1 phase at 0.1 uM after 24 hrs by propidium iodide staining based flow cytometry (reference value: 1%)
HeLa [20] = test: Induction of cell cycle arrest in human HeLa cells assessed as accumulation at S phase at 0.1 uM after 24 hrs by propidium iodide staining based flow cytometry (reference value: 24%)

| SMILES | IC50 [1] | Activity (HeLa [2]) | Activity (HeLa [3]) | Activity (HeLa [4]) | Activity (HeLa [5]) | IC50 (HeLa [6]) | Activity (HeLa [7]) | IC50 (L1210; read-out: IC50) | Activity (HeLa [8]) | Activity (HeLa [9]) | IC50 (CCRF-CEM) | IC50 [10] | Activity (HeLa [11]) | IC50 [12] | other results |
| --- | --- | --- | --- | --- | --- | --- | --- | --- | --- | --- | --- | --- | --- | --- | --- |
| COc1ccc(N(C)c2nc(C)nc3c2nc(C)n3C)cc1 | 7.4 µM | 14% | 29% | 63% | 25% | 4.5 µM | 15% | 19 µM | 39% | 8% | 6.2 µM | 7.3 µM | 18% | 8.7 µM |  |
| COc1ccc(Nc2nc(C)nc3c2nc(C)n3C)cc1 | ≥ 100 µM |  |  |  |  | 197 µM |  | ≥ 250 µM |  |  | > 250 µM | ≥ 100 µM |  | ≥ 100 µM |  |
| COc1cccc(N(C)c2nc(C)nc3c2nc(C)n3C)c1 | ≥ 100 µM |  |  |  |  | > 250 µM |  | > 250 µM |  |  | > 250 µM | ≥ 100 µM |  | ≥ 100 µM |  |
| Cc1ccc(N(C)c2nc(C)nc3c2nc(C)n3C)cc1 | > 100 µM |  |  |  |  | ≥ 250 µM |  | ≥ 250 µM |  |  | 164 µM | > 100 µM |  | > 100 µM |  |
| Cc1nc(N(C)c2ccc(OC(F)(F)F)cc2)c2nc(C)n(C)c2n1 | > 100 µM |  |  |  |  | 188 µM |  | > 250 µM |  |  | 132 µM | > 100 µM |  | > 100 µM |  |
| COc1ccc(N(C)c2ncnc3c2nc(C)n3C)cc1 | ≥ 100 µM |  |  |  |  | > 250 µM |  | > 250 µM |  |  | > 250 µM | ≥ 100 µM |  | ≥ 100 µM |  |
| COc1ccc(N(C)c2nc(C)nc3c2ncn3C)cc1 | 9.3 µM |  |  |  |  | 22 µM |  | 30 µM |  |  | 21 µM | 9.2 µM |  | 15 µM |  |
| COc1ccc(N(C)c2nc(C)nc3[nH]c(C)nc23)cc1 | 8.9 µM | 11% | 27% | 68% | 31% | 14 µM | 15% | 229 µM | 5% | 6% | 23 µM | 7.1 µM | 39% | 8.9 µM |  |
| CCN(c1ccc(OC)cc1)c1nc(C)nc2c1nc(C)n2C | 11 µM | 36% | 27% | 34% | 28% | 20 µM | 18% | 35 µM | 6% | 12% | 16 µM | 8.8 µM | 39% | 15 µM |  |
| COc1ccc2c(c1)CCCN2c1nc(C)nc2c1nc(C)n2C | 2.4 µM | 8% | 8% | 79% | 80% | 4.4 µM | 8% | 5.1 µM | 7% | 3% | 3.5 µM | 2.3 µM | 3% | 4.4 µM | Activity (HeLa [13]): 20%; Activity (HeLa [14]): 18%; Activity (HeLa [15]): 35%; Activity (HeLa [16]): 27% |
| COc1cc2c(c(OC)c1OC)-c1ccc(OC)c(=O)cc1[C@@H](NC(C)=O)CC2 [COLCHICINE] | 0.0069 µM |  |  |  |  |  |  |  |  |  | 0.031 µM |  |  | 0.031 µM | Activity (HeLa [17]): 5%; Activity (HeLa [18]): 80%; IC50 (L1210): 0.014 µM; Activity (HeLa [19]): 6%; Activity (HeLa [20]): 10% |
